Laboratory results taken from patent US12257237B2 (priority 2017, dated 2025).
Where “and” joins values, the source holds several entries; their conditions need not be identical. Identical values can stand only once.

Test: Drug tolerability (body weight) in DD013 dedifferentiated liposarcoma xenograft model
Type: in vivo, Athymic nude mice
Parameters: key to Animal status: †: sacrificed moribund
Conditions: for Mouse body weight: individual mice
Method: Experiments were performed with female Athymic nude mice, 9-10 weeks old obtained from Harlan Laboratories (Udine, Italy). They were maintained under Specific Pathogen Free conditions with constant temperature and humidity, according to the institutional guidelines.
Tumour growth mice was monitored two/three times a week (depending on tumour growth rate, to avoid unnecessary stress to the animals) by Vernier caliper. Mice were sacrificed when tumour reached a mean weight of 2±0.5 gr. The antitumour activity will be expressed as T/C %, where T and C were the mean tumour weight of treated and control groups, respectively. Mice were monitored daily and weighted at least two times a week. Tolerability was evaluated on the basis of body weight loss (BWL) and clinical observation.

[1] = EDO40 (40 mg/kg), day 23 from inoculum
[2] = EDO40 (40 mg/kg), day 26 from inoculum
[3] = EDO40 (40 mg/kg), day 33 from inoculum
[4] = EDO40 (40 mg/kg), day 36 from inoculum
[5] = EDO40 (40 mg/kg), day 40 from inoculum
[6] = EDO40 (40 mg/kg), day 43 from inoculum
[7] = EDO40 (40 mg/kg), day 50 from inoculum
[8] = EDO40 (40 mg/kg), day 54 from inoculum
[9] = EDO40 (40 mg/kg), day 58 from inoculum
[10] = EDO40 (40 mg/kg), day 62 from inoculum
[11] = EDO40 (40 mg/kg), day 65 from inoculum
[12] = EDO40 (40 mg/kg), day 69 from inoculum
[13] = EDO40 (40 mg/kg), day 72 from inoculum
[14] = EDO40 (40 mg/kg), day 75 from inoculum
[15] = EDO40 (40 mg/kg), day 79 from inoculum
[16] = EDO40 (40 mg/kg), day 83 from inoculum
[17] = EDO40 (40 mg/kg), day 87 from inoculum
[18] = EDO40 (40 mg/kg), day 90 from inoculum
[19] = EDO40 (40 mg/kg), day 94 from inoculum
[20] = EDO40 (40 mg/kg), day 98 from inoculum
[21] = EDO40 (40 mg/kg), day 100 from inoculum
[22] = EDO60 (60 mg/kg), day 23 from inoculum
[23] = EDO60 (60 mg/kg), day 26 from inoculum
[24] = EDO60 (60 mg/kg), day 29 from inoculum
[25] = EDO60 (60 mg/kg), day 33 from inoculum
[26] = EDO60 (60 mg/kg), day 36 from inoculum
[27] = EDO60 (60 mg/kg), day 40 from inoculum
[28] = EDO80 (80 mg/kg), day 23 from inoculum
[29] = EDO80 (80 mg/kg), day 26 from inoculum
[30] = EDO80 (80 mg/kg), day 29 from inoculum
[31] = EDO80 (80 mg/kg), day 33 from inoculum
[32] = EDO80 (80 mg/kg), day 36 from inoculum
[33] = EDO80 (80 mg/kg), day 40 from inoculum
[34] = EDO80 (80 mg/kg), day 43 from inoculum
[35] = EDO80 (80 mg/kg), day 47 from inoculum
[36] = EDO80 (80 mg/kg), day 50 from inoculum
[37] = EDO80 (80 mg/kg), day 54 from inoculum
[38] = EDO80 (80 mg/kg), day 58 from inoculum
[39] = EDO80 (80 mg/kg), day 62 from inoculum
[40] = EDO80 (80 mg/kg), day 65 from inoculum
[41] = EDO80 (80 mg/kg), day 69 from inoculum
[42] = EDO80 (80 mg/kg), day 72 from inoculum
[43] = EDO80 (80 mg/kg), day 75 from inoculum
[44] = EDO80 (80 mg/kg), day 79 from inoculum
[45] = EDO80 (80 mg/kg), day 83 from inoculum
[46] = EDO80 (80 mg/kg), day 87 from inoculum
[47] = EDO80 (80 mg/kg), day 90 from inoculum
[48] = EDO80 (80 mg/kg), day 94 from inoculum
[49] = EDO80 (80 mg/kg), day 98 from inoculum
[50] = EDO80 (80 mg/kg), day 100 from inoculum
[51] = EDO80 (80 mg/kg), day 103 from inoculum

Cn1c(CCCCCCC(=O)NO)nc2cc(N(CCCl)CCCl)ccc21 [EDO-S101, 7-(5-(bis(2-chloroethyl)amino)-1-methyl-1H-benzo[d]imidazol-2-yl)-N-hydroxyheptanamide]
rapid BWL of one mouse (sacrificed) (80 mg/kg group, between day 75 and 79 from inoculum): > 30%
BWL % [1]: 0.0%
Mouse body weight, Mean [1]: 23.6 g
BWL % [2]: −1.7%
Mouse body weight, Mean [2]: 23.2 g
Mouse body weight, Mean (EDO40 (40 mg/kg), day 29 from inoculum): 24.7 g
BWL % [3]: 2.4%
Mouse body weight, Mean [3]: 24.2 g
BWL % [4]: 4.1%
Mouse body weight, Mean [4]: 24.6 g
BWL % [5]: 6.1%
Mouse body weight, Mean [5]: 25.0 g
BWL % [6]: 6.2%
Mouse body weight, Mean [6]: 25.1 g
Mouse body weight, Mean (EDO40 (40 mg/kg), day 47 from inoculum): 26.0 g
BWL % [7]: 11.7%
Mouse body weight, Mean [7]: 26.4 g
BWL % [8]: 10.1%
Mouse body weight, Mean [8]: 26.0 g
BWL % [9]: 8.3%
Mouse body weight, Mean [9]: 25.6 g
BWL % [10]: 11.0%
Mouse body weight, Mean [10]: 26.2 g
BWL % [11]: 9.1%
Mouse body weight, Mean [11]: 25.8 g
BWL % [12]: 13.3%
Mouse body weight, Mean [12]: 26.8 g
BWL % [13]: 13.3%
Mouse body weight, Mean [13]: 26.8 g
BWL % [14]: 15.6%
Mouse body weight, Mean [14]: 27.3 g
BWL % [15]: 13.8%
Mouse body weight, Mean [15]: 26.9 g
BWL % [16]: 14.3%
Mouse body weight, Mean [16]: 27.0 g
BWL % [17]: 14.4%
Mouse body weight, Mean [17]: 27.0 g
BWL % [18]: 17.9%
Mouse body weight, Mean [18]: 27.8 g
BWL % [19]: 16.0%
Mouse body weight, Mean [19]: 27.4 g
BWL % [20]: 18.3%
Mouse body weight, Mean [20]: 27.9 g
BWL % [21]: 15.7%
Mouse body weight, Mean [21]: 27.3 g
BWL % [22]: 0.0%
Mouse body weight, Mean [22]: 23.3 g
BWL % [23]: −4.5%
Mouse body weight, Mean [23]: 22.3 g
BWL % [24]: 1.7%
Mouse body weight, Mean [24]: 23.7 g
BWL % [25]: −0.8%
Mouse body weight, Mean [25]: 23.1 g
BWL % [26]: 2.5%
Mouse body weight, Mean [26]: 23.9 g
BWL % [27]: −0.6%
Mouse body weight, Mean [27]: 23.2 g
Mouse body weight, Mean (EDO60 (60 mg/kg), day 43 from inoculum): 24.1 g
Mouse body weight, Mean (EDO60 (60 mg/kg), day 47 from inoculum): 25.2 g
Mouse body weight, Mean (EDO60 (60 mg/kg), day 50 from inoculum): 25.3 g
Mouse body weight, Mean (EDO60 (60 mg/kg), day 54 from inoculum): 25.6 g
Mouse body weight, Mean (EDO60 (60 mg/kg), day 58 from inoculum): 25.5 g
Mouse body weight, Mean (EDO60 (60 mg/kg), day 62 from inoculum): 25.5 g
Mouse body weight, Mean (EDO60 (60 mg/kg), day 69 from inoculum): 25.9 g
Mouse body weight, Mean (EDO60 (60 mg/kg), day 72 from inoculum): 26.3 g
Mouse body weight, Mean (EDO60 (60 mg/kg), day 75 from inoculum): 26.0 g
Mouse body weight, Mean (EDO60 (60 mg/kg), day 79 from inoculum): 24.8 g
Mouse body weight, Mean (EDO60 (60 mg/kg), day 83 from inoculum): 24.5 g
Mouse body weight, Mean (EDO60 (60 mg/kg), day 87 from inoculum): 24.6 g
Mouse body weight, Mean (EDO60 (60 mg/kg), day 90 from inoculum): 24.8 g
Mouse body weight, Mean (EDO60 (60 mg/kg), day 94 from inoculum): 25.3 g
Mouse body weight, Mean (EDO60 (60 mg/kg), day 98 from inoculum): 26.2 g
Mouse body weight, Mean (EDO60 (60 mg/kg), day 111 from inoculum): 25.6 g
Mouse body weight, Mean (EDO60 (60 mg/kg), day 114 from inoculum): 25.3 g
Mouse body weight, Mean (EDO60 (60 mg/kg), day 118 from inoculum): 25.5 g
BWL % [28]: 0.0%
Mouse body weight, Mean [28]: 24.2 g
Mouse body weight [28]: 26.1 g and 25.7 g and 25 g and 23.1 g and 24 g and 26.2 g and 22.4 g and 22.3 g
BWL % [29]: −3.4%
Mouse body weight, Mean [29]: 21.9 g
Mouse body weight [29]: 23.4 g and 23.6 g and 22 g and 21.3 g and 20.9 g and 20.1 g and 22.4 g and 21.6 g and 21.9 g
BWL % [30]: 4.2%
Mouse body weight, Mean [30]: 21.7 g
Mouse body weight [30]: 22.7 g and 22.6 g and 21.5 g and 22.2 g and 21 g (3×) and 21.6 g (2×)
BWL % [31]: 1.3%
Mouse body weight, Mean [31]: 23.7 g
Mouse body weight [31]: 25.1 g (2×) and 24 g and 23.1 g and 21.9 g and 22.5 g
BWL % [32]: 5.9%
Mouse body weight, Mean [32]: 25.5 g
Mouse body weight [32]: 27 g and 25.3 g and 24.7 g and 23.8 g and 26.3 g and 24.2 g and 24.6 g
BWL % [33]: 2.5%
Mouse body weight [33]: 28.6 g and 27 g and 25.7 g and 24.4 g (2×) and 27.9 g and 24 g
BWL % [34]: 8.0%
Mouse body weight, Mean [34]: 25.8 g
Mouse body weight [34]: 28.5 g and 26.5 g and 25 g (2×) and 26.9 g and 24.2 g and 24.4 g
BWL % [35]: 5.9%
Mouse body weight, Mean [35]: 25.9 g
Mouse body weight [35]: 27.9 g and 26.1 g and 24.6 g (2×) and 24.2 g and 27.4 g and 24.4 g
BWL % [36]: 7.6%
Mouse body weight, Mean [36]: 25.8 g
Mouse body weight [36]: 27.9 g and 26.8 g and 24.6 g and 24.4 g and 26.3 g and 23.2 g and 25.3 g
BWL % [37]: 8.0%
Mouse body weight, Mean [37]: 26.2 g
Mouse body weight [37]: 27.7 g and 26.7 g and 25.8 g and 25 g (2×) and 28 g and 24.8 g
BWL % [38]: 12.2%
Mouse body weight, Mean [38]: 27.0 g
Mouse body weight [38]: 28.7 g and 29.8 g and 28 g and 27.4 g and 26.9 g and 25 g (2×)
BWL % [39]: 8.4%
Mouse body weight, Mean [39]: 23.5 g
Mouse body weight [39]: 25.7 g and 24.4 g and 23.9 g and 24 g and 22.7 g and 21.9 g and 23.7 g and 23.8 g and 21.4 g
BWL % [40]: 8.0%
Mouse body weight, Mean [40]: 23.9 g
BWL % [41]: 6.3%
Mouse body weight, Mean [41]: 25.2 g
Mouse body weight [41]: 28.7 g
BWL % [42]: 9.7%
Mouse body weight, Mean [42]: 25.9 g
Mouse body weight [42]: 30.7 g
BWL % [43]: 13.9%
Mouse body weight, Mean [43]: 26.4 g
Mouse body weight [43]: 30.6 g
BWL % [44]: 8.8%
Mouse body weight, Mean [44]: 24.6 g
Mouse body weight [44]: 28.7 g
BWL % [45]: 7.6%
Mouse body weight, Mean [45]: 24.1 g
Mouse body weight [45]: 24.1 g
Animal status (EDO80 (80 mg/kg), day 83 from inoculum, mouse # 56): †
BWL % [46]: 5.0%
Mouse body weight, Mean [46]: 23.8 g
Mouse body weight [46]: 25.3 g
BWL % [47]: 2.9%
Mouse body weight, Mean [47]: 25.4 g
Mouse body weight [47]: 29.2 g
BWL % [48]: 0.0%
Mouse body weight, Mean [48]: 27.4 g
BWL % [49]: 2.9%
Mouse body weight, Mean [49]: 28.0 g
Mouse body weight [49]: 31.1 g
BWL % [50]: 0.4%
Mouse body weight, Mean [50]: 27.5 g
Mouse body weight [50]: 29.7 g
BWL % [51]: −0.8%
Mouse body weight, Mean [51]: 27.3 g
Mouse body weight [51]: 25.9 g
BWL (all doses and schedules): < 5%
